Patent EP1388586A2, “Identification of broadly reactive DR restricted epitopes” (priority 1998, dated 1999)
Where two headings read alike, the source gives them in different places. Square brackets hold non-standard residues; d marks the D form. Ends that are not written are not given here. Peptide text beside a SMILES is read from it.

Columns and labels:
DRB1*0101 (DR1) = molecular target: T1, DRB1*0101 (DR1) (Homo sapiens, UniProt P01903+P01911, A100R/D57E/F55L/F60I/F76Y/I96L/L162R/M171V/P40L/Q125E/R42F/V115G/Y59C); assay: Class II peptide-binding assay, DR1;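 note: competition assay: unlabeled test peptides inhibit binding of a radiolabeled probe peptide to purified DR, with half-maximal inhibition taken as an approximate dissociation constant Kd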
T1 construct: used as sources of human HLA class II molecules; endogenous in cells; host or cells: LG2 (EBV-transformed homozygous B cell line)
Procedure: (§1) Class II peptide-binding assays. […] These assays were chosen as to be representative of the most common DR alleles.
(§2) Radiolabeled peptides were iodinated using the chloramine-T method. […] In appropriate stoichiometric conditions, the IC50 of an unlabeled test peptide to the purified DR is a reasonable approximation of the affinity of interaction (Kd). Peptides were tested in two to four completely independent experiments. […] Final detergent concentration in the incubation mixture was 0.05% Nonidet P-40. Assays were performed at pH 7.0 with the exception of DR3, which was performed at pH 4.5, and DRw53, which was performed at pH 5.0.
(§3) All subsequent inhibition and direct binding assays were the performed using these class II concentrations.

DRB5*0101 (DR2w2a) = molecular target: T2, DRB5*0101 (DR2w2a) (Homo sapiens, UniProt P01903+Q30154); assay: Class II peptide-binding assay, DR2w2a (DR2w2B2);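 note: competitive binding assay: unlabeled peptide inhibiting binding of a radiolabeled probe peptide to purified DR molecules at pH 7.0, IC50 approximating Kd, lower means stronger binding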
T2 construct: used as sources of human HLA class II molecules; endogenous in cells; host or cells: GM3107 (EBV-transformed homozygous B cell line)

DRB1*0401 (DR4w4) = molecular target: T3, DRB1*0401 (DR4w4) (Homo sapiens, UniProt P01903+P01911, A100K/A169T/F76Y/I96L/K127E/L162R/M171V/N62H/P40V/Q125Y/R42H/S133A/S149N/S66Y/V115G/V209L/W38E); assay: Class II peptide-binding assay, DR4w4;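 note: unlabeled test peptides compete with a radiolabeled probe peptide for binding to affinity-purified HLA-DR, with DR amount titrated to capture a small fraction of label, IC50 approximating Kd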
T3 construct: used as sources of human HLA class II molecules; endogenous in cells; host or cells: PREISS (EBV-transformed homozygous B cell line)

DRB10404 (DR4w14) = molecular target: T4, DRB10404 (DR4w14) (Homo sapiens, UniProt P01903+P01911, A100R/A169T/F76Y/I96L/K127E/L162R/M171V/N62H/P40V/Q125Y/R42H/S133A/S149N/S66Y/V209L/W38E); assay: Class II peptide-binding assay, DR4w14;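 note: unlabeled peptides compete with a radiolabeled probe for binding to affinity-purified HLA-DR, neutral pH, class II amount titrated to bind a small fraction of label, IC50 approximates Kd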
T4 construct: used as sources of human HLA class II molecules; endogenous in cells; host or cells: BIN40 (EBV-transformed homozygous B cell line)
Procedure: as §1
In appropriate stoichiometric conditions, the IC50 of an unlabeled test peptide to the purified DR is a reasonable approximation of the affinity of interaction (Kd). Peptides were tested in two to four completely independent experiments. […] Final detergent concentration in the incubation mixture was 0.05% Nonidet P-40. Assays were performed at pH 7.0 with the exception of DR3, which was performed at pH 4.5, and DRw53, which was performed at pH 5.0.
as §3

DRB1*1101 (DR5w11) = molecular target: T5, DRB1*1101 (DR5w11) (Homo sapiens, UniProt P01903+P01911, A100R/A169T/A87E/I96F/K41T/L162R/M171V/P40S/Q125H/Q178H/Q39Y/Q99D/R42S/S66Y/T262R/V115G/W38E); assay: Class II peptide-binding assay, DR5w11;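 note: competition by unlabeled test peptide against iodinated probe peptide binding to affinity-purified HLA-DR, class II amount titrated beforehand, half-maximal inhibitory concentration read as approximate Kd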
T5 construct: used as sources of human HLA class II molecules; endogenous in cells; host or cells: SWEIG (EBV-transformed homozygous B cell line)
T5 sequence (P01903 26-254, other chains not shown): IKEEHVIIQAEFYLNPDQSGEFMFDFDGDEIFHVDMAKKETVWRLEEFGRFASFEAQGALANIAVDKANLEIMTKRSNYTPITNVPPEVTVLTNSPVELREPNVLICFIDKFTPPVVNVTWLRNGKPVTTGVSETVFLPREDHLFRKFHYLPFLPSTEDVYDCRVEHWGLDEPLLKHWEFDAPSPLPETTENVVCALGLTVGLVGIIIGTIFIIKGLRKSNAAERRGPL

DRB1*0701 (DR7) = DRB1*0701 (DR7) (Homo sapiens, UniProt P01903+P01911, A100R/A102G/A103Q/D57E/D86V/E43K/F76Y/K127E/L162R/M171V/P40G/Q125H/Q99D/R33Q/R42Y/R54Q/S133A/S66F/T210M/V115G/Y107V/Y59L/Y89S); assay: Class II peptide-binding assay, DR7;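 note: unlabeled peptides compete with an iodinated probe peptide for binding to affinity-purified HLA-DR at neutral pH, DR amount titered to bind a small tracer fraction, IC50 approximating Kd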
Procedure: as §1, §2, §3

[1] = read-out: DR1 nM (In IC50 Format), purified HLA DR1
[2] = read-out: DR2w2B2 nM (In IC50 Format), purified HLA DR2w2β2
[3] = read-out: DR4w4 nM (In IC50 Format), purified HLA DR4w4
[4] = read-out: DR4w14 nM (In IC50 Format), purified HLA DR4w14
[5] = read-out: DR5w11 nM (In IC50 Format), purified HLA DR5w11
[6] = read-out: DR7 nM (In IC50 Format), purified HLA DR7
[7] = purified HLA DR1, read-out: DR1 nM (In IC50 Format)
[8] = purified HLA DR2w2β2, read-out: DR2w2B2 nM (In IC50 Format)
[9] = purified HLA DR4w4, read-out: DR4w4 nM (In IC50 Format)
[10] = purified HLA DR4w14, read-out: DR4w14 nM (In IC50 Format)
[11] = purified HLA DR5w11, read-out: DR5w11 nM (In IC50 Format)
[12] = purified HLA DR7, read-out: DR7 nM (In IC50 Format)

Molecule: YERFQSQTTLKAKT-NH2 [Peptide 717.39]
- IC50 (DRB1*0101 (DR1); [1]): 18.5 nM
- IC50 (DRB5*0101 (DR2w2a); [2]): 800 nM
- IC50 (DRB1*0401 (DR4w4); [3]): 10.7 nM
- IC50 (DRB10404 (DR4w14); [4]): 16.7 nM
- IC50 (DRB1*1101 (DR5w11); [5]): 47.6 nM
- IC50 (DRB1*0701 (DR7); [6]): 8330 nM

Molecule: YARFQSQTTKKAKT-NH2 [Peptide 717.20]
- IC50 (DRB1*0101 (DR1); [1]): 11.1 nM
- IC50 (DRB5*0101 (DR2w2a); [2]): 87 nM
- IC50 (DRB1*0401 (DR4w4); [3]): 12.5 nM
- IC50 (DRB10404 (DR4w14); [4]): 200 nM
- IC50 (DRB1*1101 (DR5w11); [5]): 339 nM
- IC50 (DRB1*0701 (DR7); [6]): 5000 nM

Molecule: MQYIKANSKFIGITE [Peptide 812.05]
- IC50 (DRB1*0101 (DR1); [7]): 64.1 nM
- IC50 (DRB5*0101 (DR2w2a); [8]): 2.4 nM
- IC50 (DRB1*0401 (DR4w4); [9]): 229 nM
- IC50 (DRB10404 (DR4w14); [10]): 84.5 nM
- IC50 (DRB1*1101 (DR5w11); [11]): 6.7 nM
- IC50 (DRB1*0701 (DR7); [12]): 7.8 nM

Molecule: LMQYIKANSKFIGITE [Peptide 812.03]
- IC50 (DRB1*0101 (DR1); [7]): 13.2 nM
- IC50 (DRB5*0101 (DR2w2a); [8]): 4.9 nM
- IC50 (DRB1*0401 (DR4w4); [9]): 150 nM
- IC50 (DRB10404 (DR4w14); [10]): 65.8 nM
- IC50 (DRB1*1101 (DR5w11); [11]): 13.9 nM
- IC50 (DRB1*0701 (DR7); [12]): 11.9 nM

Molecule: YARFQSQTTLKAKA-NH2 [Peptide 717.48]
- IC50 (DRB1*0101 (DR1); [1]): 1.8 nM
- IC50 (DRB5*0101 (DR2w2a); [2]): 40.8 nM
- IC50 (DRB1*0401 (DR4w4); [3]): 2.6 nM
- IC50 (DRB10404 (DR4w14); [4]): 5.3 nM
- IC50 (DRB1*1101 (DR5w11); [5]): 5.9 nM
- IC50 (DRB1*0701 (DR7); [6]): 6250 nM

Molecule: KMYFNLINTKCYKLEH [Peptide 541.14]
- IC50 (DRB1*0101 (DR1); Table VIII, read-out: In IC50 Format DR1): 714 nM
- IC50 (DRB5*0101 (DR2w2a); Table VIII, read-out: In IC50 Format DR2w2β2): 103 nM
- IC50 (DRB1*0401 (DR4w4); Table VIII, read-out: In IC50 Format DR4w4): 2140 nM
- IC50 (DRB10404 (DR4w14); Table VIII, read-out: In IC50 Format DR4w14): 3570 nM
- IC50 (DRB1*1101 (DR5w11); Table VIII, read-out: In IC50 Format DR5w11): 250 nM
- IC50 (DRB1*0701 (DR7); Table VIII, read-out: In IC50 Format DR7): 269 nM

Molecule: YARFQSQTALKAKT-NH2 [Peptide 717.52]
- IC50 (DRB1*0101 (DR1); [1]): 2.2 nM
- IC50 (DRB5*0101 (DR2w2a); [2]): 15.4 nM
- IC50 (DRB1*0401 (DR4w4); [3]): 4.6 nM
- IC50 (DRB10404 (DR4w14); [4]): 31.3 nM
- IC50 (DRB1*1101 (DR5w11); [5]): 33.3 nM
- IC50 (DRB1*0701 (DR7); [6]): 1140 nM

Molecule: YARFQSLTTLKAKT-NH2 [Peptide 717.15]
- IC50 (DRB1*0101 (DR1); [1]): 1.2 nM
- IC50 (DRB5*0101 (DR2w2a); [2]): 23.8 nM
- IC50 (DRB1*0401 (DR4w4); [3]): 2 nM
- IC50 (DRB10404 (DR4w14); [4]): 9.4 nM
- IC50 (DRB1*1101 (DR5w11); [5]): 5.3 nM
- IC50 (DRB1*0701 (DR7); [6]): 961 nM

Molecule: YAEFQSQTTLKAKT-NH2 [Peptide 717.41]
- IC50 (DRB1*0101 (DR1); [1]): 23.8 nM
- IC50 (DRB5*0101 (DR2w2a); [2]): 667 nM
- IC50 (DRB1*0401 (DR4w4); [3]): 32.1 nM
- IC50 (DRB10404 (DR4w14); [4]): 65.8 nM
- IC50 (DRB1*1101 (DR5w11); [5]): 38.5 nM
- IC50 (DRB1*0701 (DR7); [6]): 25000 nM

Molecule: YARFQSQTTIKAKT-NH2 [Peptide 717.19]
- IC50 (DRB1*0101 (DR1); [1]): 5.7 nM
- IC50 (DRB5*0101 (DR2w2a); [2]): 143 nM
- IC50 (DRB1*0401 (DR4w4); [3]): 3.2 nM
- IC50 (DRB10404 (DR4w14); [4]): 19.2 nM
- IC50 (DRB1*1101 (DR5w11); [5]): 30.3 nM
- IC50 (DRB1*0701 (DR7); [6]): 2080 nM

Molecule: YARFASQTTLKAKT-NH2 [Peptide 717.56]
- IC50 (DRB1*0101 (DR1); [1]): 3.1 nM
- IC50 (DRB5*0101 (DR2w2a); [2]): 118 nM
- IC50 (DRB1*0401 (DR4w4); [3]): 5.2 nM
- IC50 (DRB10404 (DR4w14); [4]): 12.8 nM
- IC50 (DRB1*1101 (DR5w11); [5]): 21.1 nM
- IC50 (DRB1*0701 (DR7); [6]): 6250 nM

Molecule: YARFQSQTTLAAKT-NH2 [Peptide 717.50]
- IC50 (DRB1*0101 (DR1); [1]): 4.2 nM
- IC50 (DRB5*0101 (DR2w2a); [2]): 274 nM
- IC50 (DRB1*0401 (DR4w4); [3]): 3.1 nM
- IC50 (DRB10404 (DR4w14); [4]): 4.3 nM
- IC50 (DRB1*1101 (DR5w11); [5]): 20.8 nM
- IC50 (DRB1*0701 (DR7); [6]): 4170 nM

Molecule: CC[C@H](C)[C@H](NC(=O)[C@H](C)NC(=O)CNC(=O)[C@H](Cc1ccccc1)NC(=O)[C@H](CC(N)=O)NC(=O)[C@H](CC(N)=O)NC(=O)[C@H](N)CO)C(=O)N[C@@H](CC(C)C)C(=O)N[C@@H](CO)C(=O)N[C@@H](CO)C(=O)N[C@H](C(=O)N[C@@H](CC(N)=O)C(=O)N[C@H](C(=O)NCC(N)=O)C(C)C)[C@@H](C)O [Peptide 735.05] (H-[dS]NNFGAILSSTNVG-NH2)
- IC50 (DRB1*0101 (DR1); [1]): 48.5 nM
- IC50 (DRB5*0101 (DR2w2a); [2]): 2860 nM
- IC50 (DRB1*0401 (DR4w4); [3]): 273 nM
- IC50 (DRB10404 (DR4w14); [4]): 376 nM
- IC50 (DRB1*1101 (DR5w11); [5]): 20000 nM
- IC50 (DRB1*0701 (DR7); [6]): 12500 nM
